Patent US20210113519A1, “Compositions and Methods for Modulating Permeability of Biological Barriers” (Carnegie Mellon University, priority 2018, published 2021)
Entries after “also recorded” stand apart in the source; their conditions may differ.

Assays:
Caco-2 monolayers = assay: Calcein permeability assay through Caco-2 monolayers; format: cell-based, human; conditions: for calcein permeability, known phenolic compounds from strawberry: 1 mg/mL; for calcein permeability, anthocyanidins: applied at 0.33 mg/ml, vs untreated control
Method: (§1) Caco-2 Cell Monolayers: Caco-2 cells were seeded in Basal Seeding Medium (BSM) on a collagen-coated, 24-Multiwell Insert […]® Plate at a concentration of 2×10^5 cells per well. The plate was incubated at 37° C. for one to two days. On the third day, the BSM was replaced with Enterocyte Differentiation Medium (EDM). The plate was then incubated one to two more days at 37° C. to allow complete formation of differentiated monolayers.
Permeability Assays: The paracellular diffusion markers were applied at 0.5 mM (calcein) or 0.1 mM (4 kDa FITC-Dextran), dissolved in EDM with the treatment extracts, to the apical side of fully-formed monolayers (TEER>200 Ω·cm^2). Fresh EDM with the markers was used as a negative control. After one hour, media in the basal chambers was sampled and examined for fluorescence at 495/515 nm. Application of calibration curves yielded an amount of mass transferred across each monolayer, which was used in the permeability equation Papp=ΔM/CaAΔt, where Papp is the apparent permeability through the monolayer, ΔM is the marker mass in the basal compartment, Ca is the apical marker concentration, A is the monolayer area, and Δt is the time between samples. Permeability measurements are expressed as the ratio of monolayer permeability at 3 hours after treatment addition to permeability before treatment addition, normalized to any change in negative control monolayers during that time.

intestinal barrier = assay: Oral FITC-DX4 (4 kDa dextran) absorption in mice after oral enhancer; format: in vivo; conditions: pelargonidin 40 mg/kg oral, then FITC-DX4 600 mg/kg oral
Method: Examination of strawberry extract efficacy in vivo: For dextran efficacy studies, fasted mice were orally gavaged with 600 mg/kg STRB PPh solutions or 40 mg/kg pelargonidin solutions, then gavaged three hours later with 600 mg/kg FITC-DX4. Three hours after the dextran gavage, blood was collected and centrifuged. The serum was removed and examined for FITC concentration by reading for fluorescence on the plate reader and comparing to a unique calibration curve for each experiment. For larger macromolecule studies, 40 kDa dextran (FITC-DX40) was substituted at the same 600 mg/kg concentration.

[1] = tested on: Caco-2 intestinal epithelial cell monolayers; assay: TEER (transepithelial electrical resistance) assay on Caco-2 monolayers; format: cell-based, human
Method: as §1
TEERAssay: All TEER (transepithelial electrical resistance) values were measured using a voltohmmeter. Between each TEER measurement, the plate was incubated at 37° C. for a minimum of fifteen minutes to allow the cells to rest. To ensure that all the wells contained fully formed Caco-2 monolayers (>200 Ω·cm^2), initial TEER values were measured prior to treatment exposure. After adding the extracts to each well, TEER values were measured at defined intervals for a total of three hours. The treatments were then aspirated, and the cells rinsed with PBS before refilling the wells with fresh EDM. The plates were then left in the incubator at 37° C. for 24 hours, when recovery TEER values were measured.

intestinal epithelium = assay: Insulin delivery study: blood glucose in mice after oral enhancer and intestinal insulin injection; format: in vivo
Method: For insulin delivery studies, mice were orally gavaged with PBS (for control) or strawberry treatments (600 mg/kg STRB PPh or 40 mg/kg pelargonidin). One hour later, their initial blood sugar was measured and the animals were placed under anesthesia. Their intestines were surgically exposed, and insulin was injected at the predetermined dose (1 unit per kg body weight unless otherwise specified) into the duodenum of the small intestine, avoiding digestion in the stomach. The mice were closed and secured with tissue adhesive, then kept under anesthesia as their blood sugar levels were monitored each hour for five hours. For comparison to the current standard of insulin delivery, subcutaneous injections were given at 1 U/kg to additional mice, into the scruff on their necks. To determine areas above the curve for each mouse, trapezoidal integration was used to sum the area between known points on the blood glucose curve and the starting blood glucose value for the individual animal.

[2] = pelargonidin between 0.33 and 1.00 mg/mL

Question: How did the “calcein permeability, known phenolic compounds from strawberry” value (Caco-2 monolayers) turn out when `OC[C@H]1O[C@@H](Oc2cc3c(O)cc(O)cc3[o+]c2-c2ccc(O)cc2)[C@H](O)[C@@H](O)[C@@H]1O` [callistephin, reference compound] was run?
Answer: not an effective permeation enhancer

Question: How did the “calcein permeability, anthocyanidins” value (Caco-2 monolayers) turn out when `COc1cc(-c2[o+]c3cc(O)cc(O)c3cc2O)cc(OC)c1O.[Cl-]` [malvidin] was run?
Answer: increase the permeability of calcein; also recorded: statistically significant increases

Question: Which “calcein permeability, known phenolic compounds from strawberry” value (Caco-2 monolayers) does the source give for `Oc1ccc(-c2[o+]c3cc(O)cc(O)c3cc2O)cc1` [pelargonidin] here?
Answer: effective permeation enhancer; also recorded: significantly increased the permeability of calcein

Question: And the “calcein permeability, anthocyanidins” value (Caco-2 monolayers)?
Answer: increase the permeability of calcein; also recorded: statistically significant increases

Question: What about the “improvement of calcein permeability, dose response” value (Caco-2 monolayers; [2]) of the same compound?
Answer: dose dependence was also evident

Question: And the “FITC-DX4 absorption across the intestinal barrier vs saline (PBS) gavage” value (intestinal barrier)?
Answer: doubled

Question: And the “permeabilization and recovery of barrier function” value (“permeabilization and recovery” for short) ([1]; 0.33 mg/ml)?
Answer: substantial yet reversible permeabilization

Question: What about the “permeabilization and recovery” value ([1]; 0.67 mg/ml) of the same compound?
Answer: substantial yet reversible permeabilization

Question: What about the “permeabilization and recovery” value ([1]; 1 mg/ml) of the same compound?
Answer: opened the tight junctions beyond their ability to recover barrier function

Question: And the “recovery of barrier function within 24 hours (TEER)” value ([1]; pelargonidin 0.33, 0.67 and 1.00 mg/mL)?
Answer: only the two lower concentrations recovered their barrier function

Question: And the “TEER response (opening of tight junctions)” value [1, 2]?
Answer: dose-dependent opening of the tight junctions

Question: What about the “duration of hypoglycemia vs 1 U/kg subcutaneous insulin” value (intestinal epithelium; pelargonidin 40 mg/kg oral + 1 U/kg intestinal insulin) of the same compound?
Answer: sustained hypoglycemia several hours longer

Question: What about the “total pharmacodynamic effect (area above the curve) relative to subcutaneous insulin” value (intestinal epithelium; pelargonidin 40 mg/kg oral + 1 U/kg intestinal insulin vs 1 U/kg subcutaneous) of the same compound?
Answer: approximately 1.3 times

Question: And the relative bioactivity value (intestinal epithelium; pelargonidin 40 mg/kg oral + 1 U/kg intestinal insulin vs 1 U/kg subcutaneous insulin, AAC)?
Answer: 130%

Question: And the “blood glucose response to intestinal insulin” value (intestinal epithelium; pelargonidin 40 mg/kg oral, one hour later 1 U/kg insulin intestinal injection, vs saline gavage)?
Answer: substantial reduction in blood glucose; also recorded: sustained reductions in blood glucose levels

Question: `COc1cc(-c2[o+]c3cc(O)cc(O)c3cc2O)cc(O)c1O` [petunidin] was tested. Which “calcein permeability, anthocyanidins” value (Caco-2 monolayers) did it give?
Answer: increase the permeability of calcein; also recorded: statistically significant increases

Question: How did the “blood glucose response to subcutaneous insulin” value (intestinal epithelium; 1 U/kg subcutaneous insulin dose) turn out when “insulin: bovine pancreas insulin [reference compound]” was run?
Answer: pronounced but brief response
